Source: patent publication US20120165319A1, “INHIBITORS OF INTERLEUKIN-1 BETA CONVERTING ENZYME” (VERTEX PHARMACEUTICALS INCORPORATED, priority 1995, published 2012)
pIC50, pKi: −log10 of the molar value.

What was measured:
ICE = target: T1, ICE (Homo sapiens, UniProt P29466); test: Enzyme assay with UV-visible substrate (visible ICE assay, Succinyl-Tyr-Val-Ala-Asp-pNitroanilide); assay type: biochemical
T1 sequence (P29466 120-297 limits assumed): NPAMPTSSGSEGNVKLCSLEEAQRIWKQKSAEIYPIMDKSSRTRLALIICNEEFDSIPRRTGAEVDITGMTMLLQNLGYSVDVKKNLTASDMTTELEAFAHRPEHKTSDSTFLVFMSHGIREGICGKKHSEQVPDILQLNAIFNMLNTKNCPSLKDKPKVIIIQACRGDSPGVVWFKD
T1 sequence (P29466 317-404 limits assumed): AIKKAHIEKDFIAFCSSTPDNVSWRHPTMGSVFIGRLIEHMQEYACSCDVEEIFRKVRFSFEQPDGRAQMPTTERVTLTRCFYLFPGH
In short: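 Human ICE was preincubated with inhibitor in DMSO and buffer for 15 min at room temperature, then succinyl-Tyr-Val-Ala-Asp-pNA was added. pNA release was followed at 405-603 nm for 20 min at 37° C. Ki and inhibition mode came from fitting rates to standard kinetic equations.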

[1] = system: IL-1β, human peripheral blood mononuclear cells (PBMC); test: PBMC cell assay: IL-1β assay with human PBMC or enriched adherent mononuclear cells, LPS-stimulated; assay type: cell-based
In short: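 Buffy-coat human PBMC at 6×10^6 cells/ml, or adherent monocytes enriched by 1 h adherence (2.5−3.0×10^5 cells/well), are given 5–6 compound dilutions bracketing the ICE Ki (final DMSO 0.1%) plus LPS at a final 5 ng/ml. They are incubated 16–18 hr at 37 °C, 5% CO2, and supernatant mature IL-1β is measured by ELISA, with duplicate cultures and duplicate ELISAs.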

[2] = In vivo rat clearance assay; conditions: for clearance: plasma, iv; for Clearance Rat, i.v.: Table 18
In short: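 Rats cannulated a day beforehand received 10–20 mg/kg by intravenous jugular dosing in propylene glycol/saline with 100 mM sodium bicarbonate. Carotid blood was sampled from 0 to 90 min, and plasma was extracted with acetonitrile/0.1% TFA for HPLC quantification. Clearance from non-linear regression pharmacokinetic analysis.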

[3] = Homo sapiens, PBMC, * = values obtained upon reassay

O=C1C[C@H](NC(=O)[C@@H]2CCCN3C(=O)CC[C@H](NC(=O)c4cccc5ccccc45)C(=O)N23)C(OCc2ccccc2)O1 (stereo partly drawn) [Compound 213v, [1S,9S(2RS,3S)]N-(2-Benzyloxy-5-oxotetrahydrofuran-3-yl)-6,10-dioxo-9-(naphth-1-oylamino)-1,2,3,4,7,8,9,10-octahydro-6H-pyridazino[1,2-a][1,2]diazepine-1-carboxamide]
pKi (ICE; Table 17): 9.30 | pIC50 ([1]; Homo sapiens, PBMC, Table 17): 5.96 | clearance ([2]; Table 17): 23 mL/min/kg

O=C[C@H](CC(=O)O)NC(=O)[C@@H]1CCCN2C(=O)CC[C@H](NC(=O)c3ccccc3)C(=O)N12 [Compound 214e, [3S(1S,9S)]3-(9-Benzoylamino-6,10-dioxo-1,2,3,4,7,8,9,10-octahydro-6H-pyridazino[1,2-a][1,2]-diazepine-1-carboxamido)-4-oxobutanoic acid]
pKi (ICE; Table 5): 8.12 | pIC50 [1, 3]: 5.80 | clearance ([2]; 10-20 mg/kg): 12 mL/min/kg

O=C[C@H](CC(=O)O)NC(=O)[C@@H]1CCCN2C(=O)CC[C@H](NC(=O)c3cc(Cl)c(O)c(Cl)c3)C(=O)N12 [Compound 214k, [3S(1S,9S)]3-(9-(3,5-Dichloro-4-hydroxybenzoyl)amino-6,10-dioxo-1,2,3,4,7,8,9,10-octahydro-6H-pyridazino[1,2-a][1,2]diazepine-1-carboxamido)-4-oxobutanoic acid]
pKi (ICE; Table 17): 9.70 | pIC50 ([1]; Homo sapiens, PBMC, Table 17): 6.30 | clearance ([2]; Table 17): 22 mL/min/kg

O=C(O)C[C@H](NC(=O)[C@@H]1CCCN2C(=O)CC[C@H](NC(=O)c3ccccc3)C(=O)N12)C(=O)CSc1nnnn1-c1ccccc1 [Compound 280, [3S(1S,9S)]3-(9-Benzoylamino-6,10-dioxo-1,2,3,4,7,8,9,10-octahydro-6H-pyridazino[1,2-a][1,2]diazepine-1-carboxamido)-4-oxo-5(1-phenyl-1H-tetrazole-5-thio)pentanoic acid]
pIC50 [1, 3]: 6.19 | clearance ([2]; 10-20 mg/kg): 187 mL/min/kg

O=C(O)C[C@H](NC(=O)[C@@H]1CCCN2C(=O)CC[C@H](NC(=O)c3ccccc3)C(=O)N12)C(=O)COc1cccnc1 [Compound 283, [3S(1S,9S)]3-[9-Benzoylamino-6,10-dioxo-1,2,3,4,7,8,9,10-octahydro-6H-pyridazino[1,2-a][1,2]diazepine-1-carboxamido]-4-oxo-5-(3-pyridyloxy)pentanoic acid]
pIC50 [1, 3]: > 6.70 | clearance ([2]; 10-20 mg/kg): 104 mL/min/kg

COC(=O)N[C@H]1CCC(=O)N2CCC[C@@H](C(=O)N[C@@H](CC(=O)O)C(=O)COC(=O)c3c(Cl)cccc3Cl)N2C1=O [Compound 284, [3S(1S,9S)]5-(2,6-Dichlorobenzoyloxy)-3-[6,10-dioxo-9-(methoxycarbonyl)amino-1,2,3,4,7,8,9,10-octahydro-6H-pyridazino[1,2-a][1,2]diazepine-1-carboxamido]-4-oxopentanoic acid]
pIC50 [1, 3]: 6.33 | clearance ([2]; 10-20 mg/kg): 100 mL/min/kg

COC(=O)N[C@H]1CCC(=O)N2CCC[C@@H](C(=O)N[C@@H](CC(=O)O)C(=O)COC(=O)c3c(C)cccc3C)N2C1=O [Compound 285, [3S(1S,9S)]5-(2,6-Dimethylbenzoyloxy)-3-[6,10-dioxo-9-(methoxycarbonyl)amino-1,2,3,4,7,8,9,10-octahydro-6H-pyridazino[1,2-a][1,2]diazepine-1-carboxamido]-4-oxopentanoic acid]
pIC50 [1, 3]: 6.09 | clearance ([2]; 10-20 mg/kg): 50 mL/min/kg

CS(=O)(=O)N[C@H]1CCC(=O)N2CCC[C@@H](C(=O)N[C@@H](CC(=O)O)C(=O)COC(=O)c3cccc4ccccc34)N2C1=O [Compound 286, [3S(1S,9S)]3-(6,10-Dioxo-9-methanesulphonylamino-1,2,3,4,7,8,9,10-octahydro-6H-pyridazino[1,2-a][1,2]diazepine-1-carboxamido)-5-(1-naphthoyloxy)-4-oxopentanoic acid]
pIC50 ([1]; Table 18): 6.52 | Clearance Rat, i.v. [2]: 119 mL/min/kg

[3S(1S,9S)]3-[(6,10-Dioxo-9-(methanesulphonylamino)-1,2,3,4,7,8,9,10-octahydro-6H-pyridazino[1,2-a][1,2]diazepine-1-carboxamido]-5-(5-methyl-3-phenylisoxazoyloxy)-4-oxopentanoic acid [505 b]
pIC50 ([1]; Table 18): 5.82 | Clearance Rat, i.v. [2]: 196 mL/min/kg
